From ChEMBL document CHEMBL3600314, “Discovery and characterization of a potent and selective EP4 receptor antagonist” (Bioorg Med Chem Lett, 2015)
Blank lines part the entries; values can stand above or below the compound they belong to. Activity calls are given as the source filed them. No cut-off for these calls is given here.

Experiments:
[1] = target: T1, Prostaglandin E2 receptor EP2 subtype (Homo sapiens, UniProt P43116); experiment: Antagonist activity at recombinant human EP2 receptor expressed in CHO cells assessed as inhibition of PGE2-stimulated cAMP accumulation at 1 uM by scintillation proximity assay in presence of [125I]-cAMP; format: functional, cell-based
[2] = target: T1, Prostaglandin E2 receptor EP2 subtype; experiment: Agonist activity at recombinant human EP2 receptor expressed in CHO cells assessed as induction of cAMP accumulation at 1 uM after 15 mins by scintillation proximity assay in presence of [125I]-cAMP; format: functional, cell-based
[3] = target: Prostaglandin E synthase (Homo sapiens) (UniProt O14684); experiment: Inhibition of microsomal PGES-1 (unknown origin) up to 62.5 uM
[4] = target: Cytochrome P450 1A2 (Homo sapiens, UniProt P05177); experiment: Inhibition of CYP1A2 (unknown origin); format: ADME
[5] = target: Cytochrome P450 2B6 (Homo sapiens, UniProt P20813); experiment: Inhibition of CYP2B6 (unknown origin); format: ADME
[6] = target: Cytochrome P450 2C19 (Homo sapiens, UniProt P33261); experiment: Inhibition of CYP2C19 (unknown origin); format: ADME
[7] = target: Cytochrome P450 2C8 (Homo sapiens, UniProt P10632); experiment: Inhibition of CYP2C8 (unknown origin); format: ADME
[8] = target: Cytochrome P450 2C9 (Homo sapiens, UniProt P11712); experiment: Inhibition of CYP2C9 (unknown origin); format: ADME
[9] = target: Cytochrome P450 2D6 (Homo sapiens, UniProt P10635); experiment: Inhibition of CYP2D6 (unknown origin); format: ADME
[10] = target: Cytochrome P450 3A4 (Homo sapiens, UniProt P08684); experiment: Inhibition of CYP3A4 (unknown origin); format: ADME
[11] = target: Adenosine receptor A3 (Homo sapiens) (UniProt P0DMS8); experiment: Inhibition of human adenosine A3 receptor at 10 uM relative to control
[12] = target: Adrenergic receptor alpha-1 (Rattus norvegicus) (UniProt P15823+P23944+P43140); experiment: Inhibition of rat adrenergic alpha1 receptor at 10 uM relative to control
[13] = target: Adrenergic receptor alpha-2 (Rattus norvegicus) (UniProt P22086+P19328+P22909); experiment: Inhibition of rat adrenergic alpha2 receptor at 10 uM relative to control
[14] = target: Beta-1 adrenergic receptor (Homo sapiens) (UniProt P08588); experiment: Inhibition of human adrenergic beta1 receptor at 10 uM relative to control
[15] = target: Beta-2 adrenergic receptor (Homo sapiens) (UniProt P07550); experiment: Inhibition of human adrenergic beta2 receptor at 10 uM relative to control
[16] = target: D(1A) dopamine receptor (Homo sapiens) (UniProt P21728); experiment: Inhibition of human dopamine D1 receptor at 10 uM relative to control
[17] = target: D(2) dopamine receptor (Homo sapiens) (UniProt P14416); experiment: Inhibition of human dopamine D2S receptor at 10 uM relative to control
[18] = target: Histamine H1 receptor (Homo sapiens) (UniProt P35367); experiment: Inhibition of human histamine H1 receptor at 10 uM relative to control
[19] = target: Muscarinic acetylcholine receptor M2 (Homo sapiens) (UniProt P08172); experiment: Inhibition of human muscarinic M2 receptor at 10 uM relative to control
[20] = target: Muscarinic acetylcholine receptor M3 (Homo sapiens) (UniProt P20309); experiment: Inhibition of human muscarinic M3 receptor at 10 uM relative to control
[21] = target: Mu-type opioid receptor (Homo sapiens) (UniProt P35372); experiment: Inhibition of human mu opioid receptor at 10 uM relative to control
[22] = target: 5-hydroxytryptamine receptor 2B (Homo sapiens) (UniProt P41595); experiment: Inhibition of human 5-HT2B receptor at 10 uM relative to control
[23] = target: L-type calcium channel dihydropyridine binding site (Homo sapiens, UniProt O60840+Q01668+Q13698+Q13936); experiment: Inhibition of L-type calcium channel dihydropyridine binding site (unknown origin) at 10 uM relative to control; format: protein assay
[24] = target: L-type calcium channel diltiazem binding site (Homo sapiens, UniProt O60840+Q01668+Q13698+Q13936); experiment: Inhibition of L-type calcium channel diltiazem binding site (unknown origin) at 10 uM relative to control; format: protein assay
[25] = target: L-type calcium channel verapamil binding site (Homo sapiens, UniProt O60840+Q01668+Q13698+Q13936); experiment: Inhibition of L-type calcium channel verapamil binding site (unknown origin) at 10 uM relative to control; format: protein assay
[26] = species: Rattus norvegicus; experiment: Inhibition of rat chloride channel at 10 uM relative to control
[27] = target: Sodium-dependent noradrenaline transporter (Homo sapiens) (UniProt P23975); experiment: Inhibition of human NE transporter at 10 uM relative to control
[28] = target: Voltage-gated inwardly rectifying potassium channel KCNH2 (Homo sapiens, UniProt Q12809); experiment: Displacement of [3H]-astemizole from human ERG up to 100 uM
[29] = Solubility of the compound in FasSIF; format: physicochemical
[30] = Solubility of the compound in FedSIF; format: physicochemical; conditions: FeSSIF
[31] = Solubility of the compound in SGF; format: physicochemical
[32] = Tmax in Beagle dog at 10 mg/kg, po; format: ADME, organism-based, Canis lupus familiaris; conditions: in vivo
[33] = Oral bioavailability in Beagle dog at 10 mg/kg; format: ADME, organism-based, Canis lupus familiaris; conditions: in vivo
[34] = Clearance in Beagle dog at 10 mg/kg, po and 1 mg/kg, iv; format: ADME, organism-based, Canis lupus familiaris; conditions: in vivo
[35] = Plasma concentration in Beagle dog at 10 mg/kg, po measured over 12 hrs; format: ADME, organism-based, Canis lupus familiaris
[36] = Plasma concentration in Beagle dog at 10 mg/kg, po measured over 24 hrs; format: ADME, organism-based, Canis lupus familiaris
[37] = target: Prostaglandin E2 receptor EP1 subtype (Homo sapiens, UniProt P34995); experiment: Displacement of [3H]-PGE2 from human EP1 receptor by liquid scintillation counting analysis
[38] = target: T1, Prostaglandin E2 receptor EP2 subtype; experiment: Displacement of [3H]-PGE2 from human EP2 receptor by liquid scintillation counting analysis
[39] = target: Prostaglandin E2 receptor EP3 subtype (Homo sapiens, UniProt P43115); experiment: Displacement of [3H]-PGE2 from human EP3 receptor by liquid scintillation counting analysis
[40] = target: T2, Prostaglandin E2 receptor EP4 subtype (Homo sapiens, UniProt P35408); experiment: Displacement of [3H]-PGE2 from recombinant human EP4 receptor expressed in HEK293 cell membranes after 90 mins by liquid scintillation counting analysis
[41] = target: T2, Prostaglandin E2 receptor EP4 subtype; experiment: Antagonist activity at recombinant human EP4 receptor expressed in HEK293 cells assessed as inhibition of PGE2-stimulated cAMP accumulation by scintillation proximity assay in presence of [125I]-cAMP; format: functional, cell-based
[42] = target: T2, Prostaglandin E2 receptor EP4 subtype; experiment: Antagonist activity at EP4 receptor in LPS-stimulated human whole blood assessed as inhibition of PGE2-induced TNF-alpha reduction preincubated for 30 mins followed by PGE2 addition measured after 24 hrs by ELISA

T2 sequence (P35408 whole entry): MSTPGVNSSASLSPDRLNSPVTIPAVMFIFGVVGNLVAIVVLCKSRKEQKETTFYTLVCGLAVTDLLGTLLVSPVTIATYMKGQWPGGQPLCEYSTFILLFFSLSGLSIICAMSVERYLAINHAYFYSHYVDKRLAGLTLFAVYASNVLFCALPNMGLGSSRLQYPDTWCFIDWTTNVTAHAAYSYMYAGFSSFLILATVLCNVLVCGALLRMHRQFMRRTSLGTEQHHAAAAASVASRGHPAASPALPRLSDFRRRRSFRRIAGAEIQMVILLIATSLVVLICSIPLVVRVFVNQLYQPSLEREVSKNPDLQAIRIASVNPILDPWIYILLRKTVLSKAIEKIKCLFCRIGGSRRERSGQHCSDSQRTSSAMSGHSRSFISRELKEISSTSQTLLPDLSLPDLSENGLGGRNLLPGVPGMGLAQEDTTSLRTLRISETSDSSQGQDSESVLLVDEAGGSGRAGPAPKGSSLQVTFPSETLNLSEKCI
T1 sequence (P43116 whole entry): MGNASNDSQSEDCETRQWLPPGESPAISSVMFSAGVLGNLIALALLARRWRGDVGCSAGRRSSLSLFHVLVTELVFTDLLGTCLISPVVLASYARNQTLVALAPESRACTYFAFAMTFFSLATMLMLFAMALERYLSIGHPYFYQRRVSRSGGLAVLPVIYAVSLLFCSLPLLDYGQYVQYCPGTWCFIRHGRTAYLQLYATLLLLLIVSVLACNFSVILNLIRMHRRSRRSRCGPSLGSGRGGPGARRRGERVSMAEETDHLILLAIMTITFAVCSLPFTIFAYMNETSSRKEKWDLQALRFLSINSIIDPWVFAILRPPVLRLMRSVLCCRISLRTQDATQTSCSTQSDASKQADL
Sequence of Prostaglandin E2 receptor EP3 subtype (P43115 whole entry): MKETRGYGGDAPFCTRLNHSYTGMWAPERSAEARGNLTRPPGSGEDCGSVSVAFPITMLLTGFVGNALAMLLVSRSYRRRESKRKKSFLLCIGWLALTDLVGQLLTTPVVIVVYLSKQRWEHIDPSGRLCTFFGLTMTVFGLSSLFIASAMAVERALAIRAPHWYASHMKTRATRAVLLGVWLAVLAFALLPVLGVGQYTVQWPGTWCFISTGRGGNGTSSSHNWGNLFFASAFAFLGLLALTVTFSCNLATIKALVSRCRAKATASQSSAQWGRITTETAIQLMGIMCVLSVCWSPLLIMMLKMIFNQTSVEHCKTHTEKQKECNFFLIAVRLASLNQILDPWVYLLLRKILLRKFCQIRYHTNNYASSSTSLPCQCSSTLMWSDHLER
Sequence of Prostaglandin E2 receptor EP1 subtype (P34995 whole entry): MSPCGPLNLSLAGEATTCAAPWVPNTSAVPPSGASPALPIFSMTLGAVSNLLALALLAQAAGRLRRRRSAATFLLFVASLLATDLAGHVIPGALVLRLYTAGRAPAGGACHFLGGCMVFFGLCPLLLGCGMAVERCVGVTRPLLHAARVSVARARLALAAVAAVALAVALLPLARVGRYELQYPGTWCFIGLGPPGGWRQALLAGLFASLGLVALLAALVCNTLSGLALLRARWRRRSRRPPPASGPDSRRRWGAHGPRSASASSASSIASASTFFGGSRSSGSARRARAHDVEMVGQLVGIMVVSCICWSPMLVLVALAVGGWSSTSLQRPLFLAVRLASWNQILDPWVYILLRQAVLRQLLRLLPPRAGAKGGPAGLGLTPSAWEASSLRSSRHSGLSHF
Sequence of D(1A) dopamine receptor (Homo sapiens) (P21728 whole entry): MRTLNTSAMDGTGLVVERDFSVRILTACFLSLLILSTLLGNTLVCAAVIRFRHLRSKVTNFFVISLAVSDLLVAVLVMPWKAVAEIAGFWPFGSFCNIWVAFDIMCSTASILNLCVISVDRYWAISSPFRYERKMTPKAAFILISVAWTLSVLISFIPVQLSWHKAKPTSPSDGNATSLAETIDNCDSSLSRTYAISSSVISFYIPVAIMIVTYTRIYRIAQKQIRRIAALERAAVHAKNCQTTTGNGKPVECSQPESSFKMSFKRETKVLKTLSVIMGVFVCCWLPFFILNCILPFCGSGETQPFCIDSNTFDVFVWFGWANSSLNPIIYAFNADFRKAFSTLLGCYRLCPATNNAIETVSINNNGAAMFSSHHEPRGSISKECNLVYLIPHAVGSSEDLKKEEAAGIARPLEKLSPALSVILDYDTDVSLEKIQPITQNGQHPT
Sequence of Voltage-gated inwardly rectifying potassium channel KCNH2 (Q12809 whole entry): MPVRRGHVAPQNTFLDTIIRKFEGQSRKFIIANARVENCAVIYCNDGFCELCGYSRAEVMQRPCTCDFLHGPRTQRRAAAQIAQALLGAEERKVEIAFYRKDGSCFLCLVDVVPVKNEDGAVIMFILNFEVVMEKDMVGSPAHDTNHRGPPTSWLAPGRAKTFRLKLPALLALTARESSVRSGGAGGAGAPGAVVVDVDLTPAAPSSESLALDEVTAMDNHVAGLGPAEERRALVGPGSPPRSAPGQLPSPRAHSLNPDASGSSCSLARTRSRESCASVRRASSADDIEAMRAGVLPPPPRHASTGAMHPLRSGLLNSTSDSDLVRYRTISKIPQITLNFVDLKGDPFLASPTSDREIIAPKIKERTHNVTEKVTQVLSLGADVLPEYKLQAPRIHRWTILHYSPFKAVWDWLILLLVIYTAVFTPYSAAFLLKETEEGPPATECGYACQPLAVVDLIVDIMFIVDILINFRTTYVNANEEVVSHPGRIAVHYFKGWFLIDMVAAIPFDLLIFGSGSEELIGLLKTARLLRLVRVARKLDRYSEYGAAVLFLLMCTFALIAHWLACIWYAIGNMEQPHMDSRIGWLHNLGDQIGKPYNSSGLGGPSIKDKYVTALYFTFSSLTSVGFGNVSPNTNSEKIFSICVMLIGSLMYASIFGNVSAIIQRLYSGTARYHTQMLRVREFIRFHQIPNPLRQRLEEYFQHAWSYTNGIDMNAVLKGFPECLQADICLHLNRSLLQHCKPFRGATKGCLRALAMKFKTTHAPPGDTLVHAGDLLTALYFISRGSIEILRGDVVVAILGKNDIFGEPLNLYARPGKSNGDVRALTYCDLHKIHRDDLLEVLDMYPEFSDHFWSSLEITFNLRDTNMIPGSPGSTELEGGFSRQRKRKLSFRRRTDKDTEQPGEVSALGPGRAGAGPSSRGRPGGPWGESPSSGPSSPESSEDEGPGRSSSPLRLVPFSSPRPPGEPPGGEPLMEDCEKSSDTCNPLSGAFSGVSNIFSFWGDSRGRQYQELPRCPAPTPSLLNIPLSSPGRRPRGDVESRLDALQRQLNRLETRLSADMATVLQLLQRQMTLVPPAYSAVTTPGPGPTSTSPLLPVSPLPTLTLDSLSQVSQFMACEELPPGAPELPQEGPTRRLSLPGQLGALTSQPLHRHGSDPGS
Sequence of Cytochrome P450 2B6 (P20813 whole entry): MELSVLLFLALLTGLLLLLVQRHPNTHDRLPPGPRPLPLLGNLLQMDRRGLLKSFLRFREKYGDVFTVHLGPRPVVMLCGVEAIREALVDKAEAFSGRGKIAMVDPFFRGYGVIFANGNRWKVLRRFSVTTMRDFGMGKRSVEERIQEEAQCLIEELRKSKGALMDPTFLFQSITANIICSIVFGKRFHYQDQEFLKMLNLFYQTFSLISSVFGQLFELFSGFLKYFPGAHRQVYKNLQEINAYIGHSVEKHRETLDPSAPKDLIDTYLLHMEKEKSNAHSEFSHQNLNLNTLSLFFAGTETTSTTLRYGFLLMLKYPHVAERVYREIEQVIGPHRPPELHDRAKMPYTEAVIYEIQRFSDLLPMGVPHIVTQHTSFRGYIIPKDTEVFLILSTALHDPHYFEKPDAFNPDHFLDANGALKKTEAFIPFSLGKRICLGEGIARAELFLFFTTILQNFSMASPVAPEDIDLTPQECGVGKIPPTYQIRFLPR
Sequence of Histamine H1 receptor (Homo sapiens) (P35367 whole entry): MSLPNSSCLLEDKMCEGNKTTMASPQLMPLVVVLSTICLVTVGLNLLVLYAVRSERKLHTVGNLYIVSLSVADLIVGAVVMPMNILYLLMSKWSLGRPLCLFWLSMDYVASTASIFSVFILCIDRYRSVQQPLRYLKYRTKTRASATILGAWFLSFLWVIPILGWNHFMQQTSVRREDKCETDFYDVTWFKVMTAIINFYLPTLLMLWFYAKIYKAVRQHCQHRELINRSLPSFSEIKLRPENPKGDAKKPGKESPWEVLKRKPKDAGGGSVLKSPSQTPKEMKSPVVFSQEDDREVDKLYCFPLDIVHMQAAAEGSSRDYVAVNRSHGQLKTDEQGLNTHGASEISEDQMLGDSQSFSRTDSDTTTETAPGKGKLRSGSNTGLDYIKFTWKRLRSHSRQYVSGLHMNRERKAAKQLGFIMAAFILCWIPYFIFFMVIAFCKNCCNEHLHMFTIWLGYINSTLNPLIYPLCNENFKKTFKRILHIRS
Sequence of Mu-type opioid receptor (Homo sapiens) (P35372 whole entry): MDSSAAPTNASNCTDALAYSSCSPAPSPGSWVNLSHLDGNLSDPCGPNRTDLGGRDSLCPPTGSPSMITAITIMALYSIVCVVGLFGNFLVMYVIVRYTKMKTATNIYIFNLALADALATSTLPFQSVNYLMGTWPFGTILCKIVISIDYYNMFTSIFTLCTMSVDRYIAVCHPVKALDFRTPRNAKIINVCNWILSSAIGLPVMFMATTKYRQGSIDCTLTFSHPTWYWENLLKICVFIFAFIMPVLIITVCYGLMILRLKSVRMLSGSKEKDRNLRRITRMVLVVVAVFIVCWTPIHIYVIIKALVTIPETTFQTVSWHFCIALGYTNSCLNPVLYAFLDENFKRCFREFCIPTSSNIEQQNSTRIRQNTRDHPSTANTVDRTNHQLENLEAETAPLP
Sequence of Prostaglandin E synthase (Homo sapiens) (O14684 whole entry): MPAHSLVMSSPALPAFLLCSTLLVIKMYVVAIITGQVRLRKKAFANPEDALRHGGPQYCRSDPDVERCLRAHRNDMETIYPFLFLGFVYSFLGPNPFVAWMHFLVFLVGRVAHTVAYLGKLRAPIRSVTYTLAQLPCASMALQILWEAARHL

inhibition [1]: Active
Activity [2]: Active
inhibition [3]: inactive
IC50 [4]: > 10000 nM
IC50 [5]: > 10000 nM
IC50 [6]: > 10000 nM
IC50 [7]: > 10000 nM
IC50 [8]: > 10000 nM
IC50 [9]: > 10000 nM
IC50 [10]: > 10000 nM
inhibition [11]: -9%
inhibition [12]: 1%
inhibition [13]: -6%
inhibition [14]: 6%
inhibition [15]: 2%
inhibition [16]: -6%
inhibition [17]: 13%
inhibition [18]: 7%
inhibition [19]: -1%
inhibition [20]: 7%
inhibition [21]: 1%
inhibition [22]: 10%
inhibition at 10 µM [23]: -60%
inhibition at 10 µM [24]: -7%
inhibition at 10 µM [25]: 5%
inhibition [26]: 6%
inhibition [27]: 7%
solubility [29]: > 2000 µg/mL
solubility [30]: > 2000 µg/mL
solubility [31]: 1320 µg/mL
Tmax [32]: 15 min
bioavailability [33]: 81%
clearance [34]: 5.2 mL/min/kg
concentration at 12 h [35]: > 1000 nM
concentration at 24 h [36]: > 100 nM
IC50 [37]: > 25000 nM
Ki [37]: > 17500 nM
IC50 [38]: 1630 nM
IC50 [39]: > 25000 nM
Ki [39]: > 12700 nM
Compound: C[C@H](NC(=O)[C@H]1CCCCN1CCOc1ccccc1)c1ccc(C(=O)O)cc1.Cl
inhibition (INH) [28]: Not Active

IC50 [40]: 232 nM
Ki [40]: 129 nM
IC50 [41]: 14.4 nM
IC50 [42]: 291 nM
Compound: CC[C@H](NC(=O)[C@H]1CCCCN1CCOc1ccccc1)c1ccc(C(=O)O)cc1

IC50 [40]: 621 nM
Ki [40]: 372 nM
IC50 [41]: 35.8 nM
IC50 [42]: 1210 nM
Compound: C[C@H](NC(=O)[C@H]1CCCCN1CCOc1ccc(C#N)cc1)c1ccc(C(=O)O)cc1

IC50 [40]: 689 nM
IC50 [42]: 1610 nM
Compound: CCc1nc2c(C)nc(C)cc2n1-c1ccc(CCNC(=O)NS(=O)(=O)c2ccc(C)cc2)cc1 [GRAPIPRANT]

IC50 [40]: 77.8 nM
Ki [40]: 44.8 nM
IC50 [41]: 5.42 nM
IC50 [42]: 586 nM
Compound: O=C(O)c1ccc(C2(NC(=O)[C@H]3CCCCN3CCOc3ccccc3)CC2)cc1

IC50 [40]: 203 nM
Ki [40]: 126 nM
IC50 [41]: 18.1 nM
IC50 [42]: 899 nM
Compound: O=C(O)c1ccc(CNC(=O)[C@H]2CCCCN2CCOc2ccccc2)cc1

IC50 [40]: 71.8 nM
Ki [40]: 40.4 nM
IC50 [41]: 2.87 nM
IC50 [42]: 121 nM
Compound: C[C@H](NC(=O)[C@H]1CCCCN1CCOc1ccc(F)cc1)c1ccc(C(=O)O)cc1
